Test results: patent US10626077B2, “Salvianolic acid compound T, preparation method therefor, and use thereof” (TASLY PHARMACEUTICAL GROUP CO., LTD., priority 2013, dated 2020)

Test: Determination of reducing capacity (potassium ferricyanide / ferric chloride, absorbance at 700 nm)
Description: 0.5 ml of 200 mM phosphate buffer (pH6.8) containing different concentrations of the (S)/(R)-salvianolic acid T and 0.5 ml of 1.0% (w/v) potassium ferricyanide solution were sucked respectively and cooled on an ice bath after being heated on a water bath (50[…]) for 20 min. 0.5 ml of 10% trichloroacetic acid solution was added and centrifuged at […] for 10 min. 1.0 ml of the resulting supernatant was taken, into which 1.0 ml of distilled water and 0.2 ml of 0.1% (w/v) ferric chloride solution were added, stood still for 10 min and the absorbance was measured at 700 nm. Meanwhile, the blank experiment was carried out. Vitamin C is a strongly reducing substance, acting as positive control in this study. Reducing capacity of the sample is represented by subtracting the absorbance of the blank control from the absorbance of the tested sample. Thus, it means the higher absorbance, the stronger reducing capacity.

SMILES: O=C(/C=C/c1ccc(O)c(O)c1/C(=C\c1ccc(O)c(O)c1)C(=O)O)O[C@H](Cc1ccc(O)c(O)c1)C(=O)O [(R)-salvianolic acid T]
- reducing capacity compared with vitamin C (compared with positive control vitamin C): much stronger than that of vitamin C
- reducing capacity (absorbance at 700 nm minus blank control) (sample 3.125 μg/ml): 0.152 ± 0.034
- reducing capacity (absorbance at 700 nm minus blank control) (sample 6.25 μg/ml): 0.212 ± 0.009
- reducing capacity (absorbance at 700 nm minus blank control) (sample 12.5 μg/ml): 0.042 ± 0.011
- reducing capacity (absorbance at 700 nm minus blank control) (sample 25 μg/ml): 0.761 ± 0.018
- reducing capacity (absorbance at 700 nm minus blank control) (sample 50 μg/ml): 1.561 ± 0.026
